In patent US5968926A, “Antipsychotic method” (Novo Nordisk A/S, priority 1995, dated 1999):
Where a name gives a salt, the structure may show the parent alone.

Tested on: conditioned avoidance responding
Assay: Conditioned avoidance behavior in rats
Format: in vivo, rat
Conditions: 3.0 mg/kg s.c. 30 min before session, 50 trials
Source text: In a conditioned avoidance test, animals learn to respond during a conditioned stimulus in order to avoid mild shock presentation. A response during the conditioned stimulus is termed an avoidance respone, a response during shock is termed an escape response; a response failure is when the animal fails to respond during either the conditioned stimlus or the shock presentation and is indicative of motor impairment. […] Antipsychotic drugs decrease the percentage of avoidance responses without interfering with the ability of the animal to respond since the animals do emit escape responses. The percentage of response failures is considered a measure of motor impairment.
Rats were required to press a response lever in an experimental chamber in order to avoid or escape foot-shock. Each experimental session consisted of 50 trials. During each trial, the chamber was illuminated and a tone presented for a maximum of 10 sec. A response during the tone immediately terminated the tone and the houselight, ending the trial. In the absence of a response during the tone alone, tone+foot-shock (2.0 mA) was presented for a maximum of 10 sec. A response during shock presentation immediately terminated the shock, the tone and the houselight, ending the trial.
For drug screening, a dose of 3.0 mg/kg was administered s.c. 30 min before the start of the experimental session.

| SMILES | Conditioned Avoidance % Avoidance Responses |
| --- | --- |
| CCOc1nsnc1[C@H]1CN2CCC[C@H]1C2 (relative stereo) [Compound 19, Exo-6-(3-ethoxy-1,2,5-thiadiazol-4-yl)-1-azabicyclo[3.2.1]octane oxalate] | 73% |
| CCCCSc1nsnc1[C@H]1CN2CCC[C@H]1C2 (relative stereo) [Compound 30, Exo-6-(3-butylthio-1,2,5-thiadiazol-4-yl)-1-azabicyclo[3.2.1]octane oxalate] | 32% |
| CCSc1nsnc1[C@H]1CN2CCC[C@H]1C2 (relative stereo) [Compound 32, Exo-6-(3-ethylthio-1,2,5-thiadiazol-4-yl)-1-azabicyclo[3.2.1]octane oxalate] | 46% |
| CCCSc1nsnc1[C@H]1CN2CCC[C@H]1C2 (relative stereo) [Compound 58, Exo-6-(3-propylthio-1,2,5-thiadiazol-4-yl)-1-azabicyclo[3.2.1]octane oxalate] | 41% |
| CSc1nsnc1[C@H]1CN2CCC[C@H]1C2 (relative stereo) [Compound 74, Exo-6-(3-methylthio-1,2,5-thiadiazol-4-yl)-1-azabicyclo[3.2.1]octane oxalate] | 22% |
| N#Cc1ccc(CSc2nsnc2[C@H]2CN3CCC[C@H]2C3)cc1 (relative stereo) [Compound 82, Exo-6-(3-(4-cyanobenzylthio)-1,2,5-thiadiazol-4-yl)-1-azabicyclo[3.2.1]octane oxalate] | 24% |
| CCCOc1nsnc1[C@H]1CN2CCC[C@H]1C2 (relative stereo) [Compound 119, Exo-6-(3-propoxy-1,2,5-thiadiazol-4-yl)-1-azabicyclo[3.2.1]octane oxalate] | 29% |
| CCCCOc1nsnc1[C@H]1CN2CCC[C@H]1C2 (relative stereo) [Compound 120, Exo-6-(3-butoxy-1,2,5-thiadiazol-4-yl)-1-azabicyclo[3.2.1]octane oxalate] | 27% |
| CCCCSc1nsnc1C1CN2CCC1CC2.O=C(O)C(O)C(O)C(=O)O (single isomer, unassigned) [Compound 56, (+) 3-(3-Butylthio-1,2,5-thiadiazol-4-yl)-1-azabicyclo (2.2.2]octane (-) D-tartrate] | 6% |
| CCOc1nsnc1C1CN2CCC1CC2.O=C(O)/C=C/C(=O)O (centres unmarked) [Compound 9, 3-(3-Ethoxy-1,2,5-thiadiazol-4-yl)-1-azabicyclo[2.2.2]octane fumarate] | 65% |
| CCCCCCOc1nsnc1C1CN2CCC1CC2.O=C(O)/C=C/C(=O)O (centres unmarked) [Compound 11, 3-(3-Hexyloxy-1,2,5-thiadiazol-4-yl)-1-azabicyclo[2.2.2]octane fumarate] | 11% |
| CCCCSc1nsnc1C1CN2CCC1CC2.O=C(O)/C=C/C(=O)O (centres unmarked) [Compound 13, 3-(3-Butylthio-1,2,5-thiadiazol-4-yl)-1-azabicyclo[2.2.2]octane fumarate] | 18% |
| CCCCOc1nsnc1C1CN2CCC1CC2.O=C(O)C(=O)O (centres unmarked) [Compound 46, 3-(3-Butoxy-1,2,5-thiadiazol-4-yl)-1-azabicyclo[2.2.2]octane oxalate] | 30% |
| CCSc1nsnc1C1CN2CCC1CC2.O=C(O)C(=O)O (centres unmarked) [Compound 52, 3-(3-Ethylthio-1,2,5-thiadiazol-4-yl)-1-azabicyclo[2.2.2]octane oxalate] | 63% |
| CCCSc1nsnc1C1CN2CCC1CC2.O=C(O)C(=O)O (centres unmarked) [Compound 53, 3-(3-Propylthio-1,2,5-thiadiazol-4-yl)-1-azabicyclo[2.2.2]octane oxalate] | 41% |
| O=C(O)/C=C/C(=O)O.c1ccc(OCCSc2nsnc2C2CN3CCC2CC3)cc1 (centres unmarked) [Compound 102, 3-(3-(2-Phenoxyethylthio)-1,2,5-thiadiazol-4-yl)-1-azabicyclo[2.2.2) octane fumarate] | 3% |
| N#CCSc1nsnc1C1CN2CCC1CC2.O=C(O)C(=O)O (centres unmarked) [Compound 103, 3-(3-Cyanomethylthio-1,2,5-thiadiazol-4-yl)-1-azabicyclo[2.2.2]octane oxalate] | 51% |
| O=C(O)/C=C/C(=O)O.c1csc(CCCSc2nsnc2C2CN3CCC2CC3)c1 (centres unmarked) [Compound 104, 3-(3-(3-(2-Thienyl)propylthio)-1,2,5-thiadiazol-4-yl)-1-azabicyclo[2.2.2]octane fumarate] | 24% |
| Cn1nnnc1SCCCCSc1nsnc1C1CN2CCC1CC2 (centres unmarked) [Compound 106, oxalate] | 55% |
| Cc1nnc(SCCCCSc2nsnc2C2CN3CCC2CC3)s1 (centres unmarked) [Compound 107, oxalate] | 52% |
| CSc1nsnc1C1CN2CCC1CC2.O=C(O)C(=O)O (centres unmarked) [Compound 131, 3-(3-Methylthio-1,2,5-thiadiazol-4-yl)-1-azabicyclo[2.2.2]octane oxalate] | 53% |

Same assay, conditions: 3.0 mg/kg s.c. 30 min before session, 50 trials, 3 mg/kg

| SMILES | Conditioned Avoidance % Avoidance Responses |
| --- | --- |
| CCCCSc1nsnc1C1CN2CCCC1C2 (single isomer, unassigned) [Compound 111, (-)-Exo-6-(3-butylthio-1,2,5-thiadiazol-4-yl)-1-azabicyclo[3.2.1]octane (+) L-tartrate] | 8% |
| CCCCSc1nsnc1C1CN2CCCC1C2 (single isomer, unassigned) [Compound 112, (+)-Exo-6-(3-butylthio-1,2,5-thiadiazol-4-yl)-1-azabicyclo[3.2.1]octane (-) D-tartrate] | 2% |
| CCCSc1nsnc1C1CN2CCCC1C2 (single isomer, unassigned; (+)) [Compound 113, (+)-Exo-6-(3-propylthio-1,2,5-thiadiazol-4-yl)-1-azabicyclo[3.2.1]octane (+) L-tartrate] | 19% |
| CCCSc1nsnc1C1CN2CCCC1C2 (single isomer, unassigned; (-)) [Compound 114, (-)-Exo-6-(3-propylthio-1,2,5-thiadiazol-4-yl)-1-azabicyclo[3.2.1]octane (-) D-tartrate] | 39% |

Tested on: not given
Assay: not given
Conditions: blood samples of treated patients, 17 patients, trial terminated; cited from earlier work

| SMILES | enzyme levels: creatinine phosphokinase (CPK), SGOT, SGPT |
| --- | --- |
| Cc1cc2c(s1)Nc1ccc(F)cc1N=C2N1CCN(C)CC1 [flumezapine, 7-fluoro-2-methyl-10-(4-methyl-1-piperazinyl)-4H-thieno[2,3-b][1,5]-benzodiazepine] | in substantial excess of normal values |
